According to patent publication US6737383B1, “Herbicidal oxadiazolidines” (priority 1999, dated 2004):

Key:
sugar beet = experiment: Test B pre/postemergence sugar beet; format: in vivo, Beta vulgaris
In short: (§1)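 Test chemicals in a non-phytotoxic solvent mixture with surfactant were sprayed preemergence onto planted seeds and postemergence onto plants 2 to 18 cm tall (1- to 4-leaf stage). After twelve to sixteen days in a greenhouse, injury was visually rated against untreated controls from 0 (no effect) to 10 (complete control).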

cocklebur = experiment: Test B pre/postemergence cocklebur; format: in vivo, Xanthium strumarium
In short: as §1

blackgrass = experiment: Test B pre/postemergence blackgrass; format: in vivo, Alopecurus myosuroides
In short: as §1

velvetleaf = experiment: Test B pre/postemergence velvetleaf; format: in vivo, Abutilon theophrasti
In short: as §1

crabgrass = experiment: Test B pre/postemergence crabgrass; format: in vivo, Digitaria sanguinalis
In short: as §1

corn = experiment: Test B pre/postemergence corn; format: in vivo, Zea mays
In short: as §1

morningglory = experiment: Test B pre/postemergence morningglory; format: in vivo, Ipomoea hederacea
In short: as §1

surinam grass = experiment: Test B pre/postemergence surinam grass; format: in vivo, Brachiaria decumbens
In short: as §1

purple nutsedge = experiment: Test B pre/postemergence purple nutsedge; format: in vivo, Cyperus rotundus
In short: as §1

duck salad = experiment: Test B flood test duck salad; format: in vivo, Heteranthera limosa
In short: (§2)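 Read-out is a visual response score from 0 (no effect) to 10 (complete control), assigned by comparison with untreated controls. Treatment was applied at the 2-leaf stage, and plants stayed in the greenhouse for twelve to sixteen days before scoring.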

wild oat = experiment: Test B pre/postemergence wild oat; format: in vivo, Avena fatua
In short: as §1

smallflower flatsedge = experiment: Test B flood test smallflower flatsedge; format: in vivo, Cyperus difformis
In short: as §2

wheat = experiment: Test B pre/postemergence wheat; format: in vivo, Triticum aestivum
In short: as §1

giant foxtail = experiment: Test B pre/postemergence giant foxtail; format: in vivo, Setaria faberii
In short: as §1

rape = experiment: Test B pre/postemergence rape; format: in vivo, Brassica napus
In short: as §1

soybean = experiment: Test B pre/postemergence soybean; format: in vivo, Glycine max
In short: as §1

[1] = Postemergence, Rate 250 g/ha, scale 0 to 10, 0 is no effect, 10 is complete control
[2] = Postemergence, Rate 500 g/ha, scale of 0 to 10 where 0 is no effect and 10 is complete control
[3] = Preemergence, Rate 62 g/ha, scale 0 to 10 (0 no effect, 10 complete control)
[4] = Preemergence, Rate 125 g/ha, scale of 0 to 10 where 0 is no effect and 10 is complete control
[5] = Preemergence, Rate 250 g/ha, scale 0 to 10, 0 is no effect, 10 is complete control
[6] = Preemergence, Rate 500 g/ha, scale 0 to 10, 0 is no effect, 10 is complete control
[7] = Rate 62 g/ha, Postemergence, scale of 0 to 10 where 0 is no effect and 10 is complete control
[8] = Postemergence, Rate 125 g/ha, scale 0 to 10, 0 is no effect, 10 is complete control
[9] = Preemergence, Rate 250 g/ha, scale of 0 to 10 where 0 is no effect and 10 is complete control
[10] = Rate 62 g/ha, flood test species, Pre-emergence, visual evaluation after twelve to sixteen days
[11] = Rate 125 g/ha, under heading Pre-emergence, flood test species, visual evaluation after twelve to sixteen days
[12] = Rate 250 g/ha, Pre-emergence, flood-test species, scale 0 to 10, 0 is no effect, 10 is complete control
[13] = Rate 500 g/ha, Pre-emergence, flood test species, scale 0 to 10 (0 no effect, 10 complete control)

SMILES: CC1CC1Cn1c(=O)on(C(=O)N(c2ccc(F)cc2)C(C)C)c1=O (centres unmarked) [Compound 402]
- Plant response rating, Sugarbeets (sugar beet; [1]): 2
- Sugarbeets plant response rating (sugar beet; [2]): 2
- Plant response rating, Sugarbeets (sugar beet; [3]): 0
- Plant response rating, Sugarbeets (sugar beet; [4]): 0
- Sugarbeets plant response rating (sugar beet; [5]): 3
- Sugarbeets plant response rating (sugar beet; [6]): 8
- Sugarbeets plant response rating (sugar beet; [7]): 1
- Plant response rating, Cocklebur (cocklebur; [8]): 1
- Plant response rating, Cocklebur (cocklebur; [1]): 4
- Cocklebur plant response rating (cocklebur; [2]): 5
- Plant response rating, Cocklebur (cocklebur; [3]): 0
- Plant response rating, Cocklebur (cocklebur; [4]): 0
- Cocklebur plant response rating (cocklebur; [5]): 0
- Cocklebur plant response rating (cocklebur; [6]): 0
- Cocklebur plant response rating (cocklebur; [7]): 0
- Blackgrass plant response rating (blackgrass; [2]): 9
- Plant response rating, Blackgrass (blackgrass; [3]): 3
- Plant response rating, Blackgrass (blackgrass; [4]): 7
- Blackgrass plant response rating (blackgrass; [9]): 9
- Blackgrass plant response rating (blackgrass; [6]): 10
- Plant response rating, Velvetleaf (velvetleaf; [1]): 4
- Velvetleaf plant response rating (velvetleaf; [2]): 4
- Plant response rating, Velvetleaf (velvetleaf; [3]): 0
- Plant response rating, Velvetleaf (velvetleaf; [4]): 0
- Velvetleaf plant response rating (velvetleaf; [5]): 3
- Velvetleaf plant response rating (velvetleaf; [6]): 8
- Velvetleaf plant response rating (velvetleaf; [7]): 0
- Plant response rating, Crabgrass (crabgrass; [8]): 3
- Plant response rating, Crabgrass (crabgrass; [1]): 5
- Crabgrass plant response rating (crabgrass; [2]): 9
- Plant response rating, Crabgrass (crabgrass; [3]): 9
- Plant response rating, Crabgrass (crabgrass; [4]): 9
- Crabgrass plant response rating (crabgrass; [5]): 10
- Crabgrass plant response rating (crabgrass; [6]): 10
- Crabgrass plant response rating (crabgrass; [7]): 3
- Plant response rating, Corn (corn; [8]): 0
- Plant response rating, Corn (corn; [1]): 0
- Corn plant response rating (corn; [2]): 0
- Plant response rating, Corn (corn; [3]): 0
- Plant response rating, Corn (corn; [4]): 0
- Corn plant response rating (corn; [5]): 3
- Corn plant response rating (corn; [6]): 9
- Corn plant response rating (corn; [7]): 0
- Plant response rating, Morningglory (morningglory; [1]): 8
- Morningglory plant response rating (morningglory; [2]): 10
- Plant response rating, Morningglory (morningglory; [3]): 0
- Plant response rating, Morningglory (morningglory; [4]): 0
- Morningglory plant response rating (morningglory; [5]): 2
- Morningglory plant response rating (morningglory; [6]): 2
- Morningglory plant response rating (morningglory; [7]): 3
- Plant response rating, B. signalgrass (surinam grass; [8]): 2
- Plant response rating, B. signalgrass (surinam grass; [1]): 2
- B. signalgrass plant response rating (surinam grass; [2]): 5
- Plant response rating, B. signalgrass (surinam grass; [3]): 0
- Plant response rating, B. signalgrass (surinam grass; [4]): 3
- B. signalgrass plant response rating (surinam grass; [9]): 4
- B. signalgrass plant response rating (surinam grass; Preemergence, Rate 500 g/ha, scale of 0 to 10 where 0 is no effect and 10 is complete control): 9
- B. signalgrass plant response rating (surinam grass; [7]): 0
- Plant response rating, Nutsedge (purple nutsedge; [1]): 0
- Nutsedge plant response rating (purple nutsedge; [2]): 0
- Plant response rating, Nutsedge (purple nutsedge; [3]): 0
- Plant response rating, Nutsedge (purple nutsedge; [4]): 0
- Nutsedge plant response rating (purple nutsedge; [5]): 0
- Nutsedge plant response rating (purple nutsedge; [6]): 0
- Nutsedge plant response rating (purple nutsedge; [7]): 0
- Plant response rating, Ducksalad (0 to 10 scale, 0 is no effect, 10 is complete control) (duck salad; [10]): 0
- Ducksalad plant response rating (0 to 10 scale, 0 is no effect, 10 is complete control) (duck salad; [11]): 0
- Ducksalad plant response rating (duck salad; [12]): 0
- Ducksalad plant response rating (duck salad; [13]): 0
- Wild oats plant response rating (wild oat; [2]): 3
- Plant response rating, Wild oats (wild oat; [3]): 1
- Plant response rating, Wild oats (wild oat; [4]): 4
- Wild oats plant response rating (wild oat; [5]): 8
- Wild oats plant response rating (wild oat; [6]): 10
- Wild oats plant response rating (wild oat; [7]): 0
- Plant response rating, S. Flatsedge (0 to 10 scale, 0 is no effect, 10 is complete control) (smallflower flatsedge; [10]): 0
- S. Flatsedge plant response rating (0 to 10 scale, 0 is no effect, 10 is complete control) (smallflower flatsedge; [11]): 0
- S. Flatsedge plant response rating (smallflower flatsedge; [12]): 0
- S. Flatsedge plant response rating (smallflower flatsedge; [13]): 2
- Wheat plant response rating (wheat; [2]): 0
- Plant response rating, Wheat (wheat; [3]): 0
- Plant response rating, Wheat (wheat; [4]): 0
- Wheat plant response rating (wheat; [5]): 3
- Wheat plant response rating (wheat; [6]): 6
- Wheat plant response rating (wheat; [7]): 0
- Plant response rating, Giant foxtail (giant foxtail; [8]): 8
- Plant response rating, Giant foxtail (giant foxtail; [1]): 9
- Giant foxtail plant response rating (giant foxtail; [2]): 9
- Plant response rating, Giant foxtail (giant foxtail; [3]): 10
- Plant response rating, Giant foxtail (giant foxtail; [4]): 10
- Giant foxtail plant response rating (giant foxtail; [5]): 10
- Giant foxtail plant response rating (giant foxtail; [6]): 10
- Giant foxtail plant response rating (giant foxtail; [7]): 8
- Plant response rating, Rape (rape; [1]): 8
- Rape plant response rating (rape; [2]): 9
- Plant response rating, Rape (rape; [3]): 0
- Plant response rating, Rape (rape; [4]): 1
- Rape plant response rating (rape; [5]): 5
- Rape plant response rating (rape; [6]): 8
- Rape plant response rating (rape; [7]): 1
- Plant response rating, Soybean (soybean; [1]): 6
- Soybean plant response rating (soybean; [2]): 8
- Plant response rating, Soybean (soybean; [3]): 0
- Plant response rating, Soybean (soybean; [4]): 0
- Soybean plant response rating (soybean; [5]): 0
- Soybean plant response rating (soybean; [6]): 1
- Soybean plant response rating (soybean; [7]): 4
